Test results as given in patent publication US20110178053A1, “AZACARBOLINE DERIVATIVES, PREPARATION METHOD THEREOF AND THERAPEUTIC USE OF SAME” (SANOFI-AVENTIS, priority 2008, published 2011).

Tests used:
Pim-1 = biological target: T1, Pim-1 (Homo sapiens, UniProt P11309); test: TR-FRET assay, Pim-1 kinase (phosphorylation of Bad Ser112); assay type: biochemical; settings: TR-FRET; ATP 40 μM; read-out: IC50 Pim1
T1 construct: His6-labelled recombinant full-length human Pim-1, Pim-2 or Pim-3 protein; His6; made in house
Summary of the method: (§1)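 For each of Pim-1, Pim-2 and Pim-3 (His6-tagged full-length human), compounds were titrated over 10 concentrations in duplicate, typically from 30 μM, with ATP at 40 μM, equal to apparent KM. Bad Ser112 phosphorylation was read as the 665/615 nm TR-FRET ratio and IC50 fitted by 4-parameter logistic model.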

PLK1 = PLK1 (Homo sapiens, UniProt P53350); test: PLK1 biochemical inhibition
Pim-2 = biological target: T2, Pim-2 (Homo sapiens, UniProt Q9P1W9); test: TR-FRET assay, Pim-2 kinase (phosphorylation of Bad Ser112); assay type: biochemical; settings: TR-FRET; ATP 40 μM; read-out: IC50 Pim2
T2 construct: His6-labelled recombinant full-length human Pim-1, Pim-2 or Pim-3 protein; His6; made in house
Summary of the method: as §1

Pim-3 = biological target: T3, Pim-3 (Homo sapiens, UniProt Q86V86); test: TR-FRET assay, Pim-3 kinase (phosphorylation of Bad Ser112); assay type: biochemical; settings: TR-FRET; ATP 40 μM; read-out: IC50 Pim3
T3 construct: His6-labelled recombinant full-length human Pim-1, Pim-2 or Pim-3 protein; His6; made in house
Summary of the method: as §1

Sequence of PLK1 (P53350 whole entry, species assumed): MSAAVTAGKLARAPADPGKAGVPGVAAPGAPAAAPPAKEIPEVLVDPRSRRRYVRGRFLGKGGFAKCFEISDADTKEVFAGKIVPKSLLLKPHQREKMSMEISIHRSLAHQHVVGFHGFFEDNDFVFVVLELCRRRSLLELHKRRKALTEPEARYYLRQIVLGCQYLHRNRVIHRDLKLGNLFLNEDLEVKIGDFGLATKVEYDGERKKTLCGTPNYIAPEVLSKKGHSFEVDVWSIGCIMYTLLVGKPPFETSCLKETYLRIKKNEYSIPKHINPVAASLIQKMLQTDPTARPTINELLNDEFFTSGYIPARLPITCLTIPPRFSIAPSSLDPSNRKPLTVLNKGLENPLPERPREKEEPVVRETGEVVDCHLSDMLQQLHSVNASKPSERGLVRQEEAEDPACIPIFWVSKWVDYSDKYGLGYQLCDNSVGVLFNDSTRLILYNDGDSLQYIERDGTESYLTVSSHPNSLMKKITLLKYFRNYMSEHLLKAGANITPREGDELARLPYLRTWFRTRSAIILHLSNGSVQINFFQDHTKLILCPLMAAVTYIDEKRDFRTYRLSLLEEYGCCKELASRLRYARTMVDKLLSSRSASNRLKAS
T2 sequence (Q9P1W9 whole entry): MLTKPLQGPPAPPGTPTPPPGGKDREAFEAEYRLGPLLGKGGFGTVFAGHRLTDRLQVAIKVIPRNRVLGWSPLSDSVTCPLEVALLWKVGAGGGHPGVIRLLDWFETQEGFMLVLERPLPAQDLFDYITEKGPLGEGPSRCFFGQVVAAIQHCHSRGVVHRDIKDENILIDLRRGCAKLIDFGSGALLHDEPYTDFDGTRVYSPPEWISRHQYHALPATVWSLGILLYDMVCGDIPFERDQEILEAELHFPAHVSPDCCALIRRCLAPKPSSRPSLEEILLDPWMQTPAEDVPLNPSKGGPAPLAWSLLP
T1 sequence (P11309 whole entry): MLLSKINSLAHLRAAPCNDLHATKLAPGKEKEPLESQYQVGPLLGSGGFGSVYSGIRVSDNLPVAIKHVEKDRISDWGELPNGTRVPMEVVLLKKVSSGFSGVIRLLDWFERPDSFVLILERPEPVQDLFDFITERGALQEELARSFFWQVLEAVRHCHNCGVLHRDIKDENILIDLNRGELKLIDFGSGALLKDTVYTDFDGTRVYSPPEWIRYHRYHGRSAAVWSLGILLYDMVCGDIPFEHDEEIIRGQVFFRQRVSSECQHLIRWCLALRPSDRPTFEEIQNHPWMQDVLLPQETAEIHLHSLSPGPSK

SMILES | IC50 (Pim-1) [nM] | IC50 (PLK1) [nM] | IC50 (Pim-2) [nM] | IC50 (Pim-3) [nM]
Fc1cnc2[nH]c3cnc(-c4cccnc4)cc3c2c1 [Example 2, 3-fluoro-6-(pyrid-3-yl)-9H-pyrrolo[2,3-b:5,4-c′] dipyridine] | 100 to 1000 | 100 to 1000 | – | –
CCCN(C)C(=O)c1cnc2[nH]c3cnc(-c4cccnc4)cc3c2c1 [Example 6, N-methyl-N-propyl-6-(pyrid-3-yl)-9H-pyrrolo[2,3-b:5,4-c′]dipyridine-3-carboxamide] | 100 to 1000 | > 5000 | 1000 to 5000 | 1000 to 5000
Fc1cnc2[nH]c3cnc(-c4cccnc4)cc3c2c1C1CC1 [Example 32, 4-cyclopropyl-3-fluoro-6-(pyrid-3-yl)-9H-pyrrolo[2,3-b:5,4-c′]dipyridine] | 1 to 100 | 1 to 100 | 1000 to 5000 | 1 to 100
O=C(c1ccccc1)c1c(F)cnc2[nH]c3cnc(-c4cccnc4)cc3c12 [Example 34, [3-fluoro-6-(pyrid-3-yl)-9H-pyrrolo[2,3-b:5,4-c′]-dipyrid-4-yl](phenyl)-methanone] | 1 to 100 | 100 to 1000 | > 5000 | 1000 to 5000
O=C(c1c(F)cnc2[nH]c3cnc(-c4cccnc4)cc3c12)N1CCOCC1 [Example 36, [3-fluoro-6-(pyrid-3-yl)-9H-pyrrolo[2,3-b:5,4-c′]-dipyrid-4-yl](morpholin-4-yl)methanone] | 100 to 1000 | 1000 to 5000 | > 5000 | 1000 to 5000
c1cnc2[nH]c3cnc(-c4ccoc4)cc3c2c1 [Example 40, 6-furan-3-yl-9H-pyrrolo[2,3-b:5,4-c′]dipyridine] | 100 to 1000 | > 5000 | > 5000 | 1000 to 5000
O=S(=O)(CCl)Nc1ccc(-c2c(F)cnc3[nH]c4cnc(-c5cccnc5)cc4c23)cc1 [Example 45, 1-chloro-N-{4-[3-fluoro-6-(pyrid-3-yl)-9H-pyrrolo[2,3-b:5,4-c′]dipyrid-4-yl]-phenyl}-methanesulfonamide] | 1 to 100 | 1 to 100 | 1000 to 5000 | 1 to 100
COc1cc(-c2c(F)cnc3[nH]c4cnc(-c5cccnc5)cc4c23)ccc1NS(C)(=O)=O [Example 47, N-{-4-[3-fluoro-6-(pyrid-3-yl)-9H-pyrrolo[2,3-b:5,4-c′]dipyrid-4-yl]-2-methoxyphenyl}-methanesulfonamide] | 1 to 100 | 100 to 1000 | 1000 to 5000 | 1 to 100
CN(c1ccc(-c2c(F)cnc3[nH]c4cnc(-c5cccnc5)cc4c23)cc1)S(C)(=O)=O [Example 48, N-{-4-[3-fluoro-6-(pyrid-3-yl)-9H-pyrrolo[2,3-b:5,4-c′]dipyrid-4-yl]-phenyl}-N-methyl-methanesulfonamide] | 1 to 100 | 100 to 1000 | 100 to 1000 | 1 to 100
CS(=O)(=O)NCc1cccc(-c2c(F)cnc3[nH]c4cnc(-c5cccnc5)cc4c23)c1 [Example 62, N-{3-[3-fluoro-6-(pyrid-3-yl)-9H-pyrrolo[2,3-b:5,4-c′]-dipyrid-4-yl]benzyl}-methanesulfonamide] | 1 to 100 | 1 to 100 | 1000 to 5000 | 1 to 100
COc1ccccc1-c1c(F)cnc2[nH]c3cnc(-c4cccnc4)cc3c12 [Example 63, 3-fluoro-4-(2-methoxyphenyl)-6-(pyrid-3-yl)-9H-pyrrolo[2,3-b:5,4-c′]-dipyridine] | 1 to 100 | 1 to 100 | > 5000 | 100 to 1000
CS(=O)(=O)NCc1ccc(-c2c(F)cnc3[nH]c4cnc(-c5cccnc5)cc4c23)cc1 [Example 66, N-{4-[3-fluoro-6-(pyrid-3-yl)-9H-pynolo[2,3-b:5,4-c′]-dipyrid-4-yl]benzyl}-methanesulfonamide] | 1 to 100 | 1 to 100 | 100 to 1000 | 1 to 100
CCCN(CCC)CCCN1CCN(c2c(F)cnc3[nH]c4cnc(-c5cccnc5)cc4c23)CC1 [Example 88, 3-{4-[3-fluoro-6-(pyrid-3-yl)-9H-pyrrolo[2,3-b:5,4-c′]dipyrid-4-yl]piperazin-1-yl}-N,N-dipropylpropan-1-amine] | 1 to 100 | 1000 to 5000 | 100 to 1000 | 1 to 100
CCN(CC)CCCN1CCN(c2c(F)cnc3[nH]c4cnc(-c5cccnc5)cc4c23)CC1 [Example 89, N,N-diethyl-3-{4-[3-fluoro-6-(pyrid-3-yl)-9H-pyrrolo[2,3-b:5,4-c′]dipyrid-4-yl]piperazin-1-yl}propan-1-amine] | 1 to 100 | 1000 to 5000 | 1000 to 5000 | 100 to 1000
Oc1ccc(-c2c(F)cnc3[nH]c4cnc(-c5cccnc5)cc4c23)cc1 [Example 95, 4-[3-fluoro-6-(pyrid-3-yl)-9H-pyrrolo[2,3-b:5,4-c′]dipyrid-4-yl]phenol] | 1 to 100 | 1 to 100 | 100 to 1000 | 100 to 1000
